Assay results taken from article PMC7872956, “Fucosidases from the human gut symbiont Ruminococcus gnavus” (Cellular and Molecular Life Sciences: CMLS, 2020).

Experiments:
[1] = target: T1, GH29 fucosidase E1_10125 (Mediterraneibacter gnavus, UniProt A0A6N3BKT0, D236A); assay: STD NMR binding epitope mapping
T1 construct: gene hypBA2
T1 sequence (A0A6N3BKT0 35-583 D236A): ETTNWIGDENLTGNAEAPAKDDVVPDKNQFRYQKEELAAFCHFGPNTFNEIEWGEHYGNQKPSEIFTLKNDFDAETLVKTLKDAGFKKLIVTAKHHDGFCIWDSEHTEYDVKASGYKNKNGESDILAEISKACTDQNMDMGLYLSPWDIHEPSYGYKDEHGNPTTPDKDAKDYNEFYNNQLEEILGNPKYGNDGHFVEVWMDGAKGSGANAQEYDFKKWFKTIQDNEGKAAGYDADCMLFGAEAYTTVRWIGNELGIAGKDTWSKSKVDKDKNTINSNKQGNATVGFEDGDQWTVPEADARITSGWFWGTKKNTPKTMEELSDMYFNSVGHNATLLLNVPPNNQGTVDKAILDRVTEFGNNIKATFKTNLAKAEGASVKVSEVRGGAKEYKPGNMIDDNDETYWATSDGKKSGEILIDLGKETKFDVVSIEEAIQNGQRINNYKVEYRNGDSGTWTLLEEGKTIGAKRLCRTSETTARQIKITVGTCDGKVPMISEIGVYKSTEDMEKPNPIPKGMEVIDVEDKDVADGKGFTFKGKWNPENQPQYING

[2] = target: T1, GH29 fucosidase E1_10125; assay: X-ray crystal structure ([…] Å) and ITC; format: binding
[3] = target: T2, GH29 fucosidase E1_10125 (Mediterraneibacter gnavus, UniProt A0A6N3BKT0, D236A); assay: ITC; also STD NMR; format: binding
T2 construct: gene hypBA2

With `C[C@@H]1O[C@@H](O[C@H]2[C@H](O[C@@H]3O[C@H](CO)[C@H](O)[C@H](O)[C@H]3O)[C@@H](CO)OC(O)[C@@H]2O)[C@@H](O)[C@H](O)[C@@H]1O` (stereo partly drawn) [3FL] the “STD NMR binding epitope mapping” value [1] was “The enzyme intimately recognized the three sugar residues constituting 3FL and LeA”.

`C[C@@H]1OC(O)[C@@H](O)[C@H](O)[C@@H]1O` (stereo partly drawn) [Fuc, L-fucose] gave a Kd [2] of 21.7 µM.

For `CC(=O)N[C@H]1C(O)O[C@H](CO)[C@@H](O[C@@H]2O[C@@H](C)[C@@H](O)[C@@H](O)[C@@H]2O)[C@@H]1O[C@@H]1O[C@H](CO)[C@H](O)[C@H](O)[C@H]1O` (stereo partly drawn) [LeA, Lewis A], the “STD NMR binding epitope mapping” value [1] was “The enzyme intimately recognized the three sugar residues constituting 3FL and LeA”.

For `CC(=O)N[C@H]1C(O)O[C@H](CO)[C@@H](O[C@@H]2O[C@H](CO)[C@H](O)[C@H](O)[C@H]2O)[C@@H]1O[C@@H]1O[C@@H](C)[C@@H](O)[C@@H](O)[C@@H]1O` (stereo partly drawn) [LeX, Lewis X], the Kd [3] was 51.4 ± 1.93 µM.

`CC(=O)N[C@H]1[C@H]([C@H](O)[C@H](O)CO)O[C@@](O[C@H]2[C@@H](O)[C@@H](CO)O[C@@H](O[C@H]3[C@H](O[C@@H]4O[C@@H](C)[C@@H](O)[C@@H](O)[C@@H]4O)[C@@H](NC(C)=O)C(O)O[C@@H]3CO)[C@@H]2O)(C(=O)O)C[C@@H]1O` (stereo partly drawn) [sLeX, 3′-Sialyl Lewis X] was tested, and the Kd [3] was 3.59 ± 0.48 µM.

`CC(=O)N[C@H]1C(O)O[C@H](CO)[C@@H](O[C@@H]2O[C@H](CO)[C@H](O)[C@H](O[C@H]3O[C@H](CO)[C@H](O)[C@H](O)[C@H]3O)[C@H]2O)[C@@H]1O[C@@H]1O[C@@H](C)[C@@H](O)[C@@H](O)[C@@H]1O` (stereo partly drawn) [αGal-LeX, α1–3Gal-Lewis X] showed a Kd [3] of 47.1 ± 5.6 µM.
